Assay results as given in patent US20260022142A1, “MACROCYCLIC IMMUNOMODULATORS” (Bristol-Myers Squibb Company, priority 2022, published 2026).
Numbered stars: 1 amine (or outer) side, 2 acyl side, 3 side chain; on linkers, the order of the positions; unused ones are H or OH. Bridge positions count the residues as written; N and C are the ends. Square brackets hold non-standard residues; d marks the D form. Peptide text beside a SMILES is read from it. * marks the point of attachment. ξ: configuration not given here. Bip = N[C@@H](Cc1ccc(-c2ccccc2)cc1)C(=O)O; Phe(3-Me) = Cc1cccc(C[C@H](N)C(=O)O)c1; γGlu = O=C(O)[C@H](CCC(=O)[*:2])N[*:1]; Cha = N[C@@H](CC1CCCCC1)C(=O)O; Thr(3ξ) = CC(O)[C@H](N)C(=O)O; Carboxymethyl = O=C(O)C*; Orn = NCCC[C@H](N)C(=O)O; Aun = NCCCCCCCCCCC(=O)O; Dab = NCC[C@H](N)C(=O)O; Dap = NC[C@H](N)C(=O)O; AEEA = NCCOCCOCC(=O)O

Target: T1, PD-1/PD-L1 interaction (PE-labeled human PD-L1-Ig binding to Jurkat cell line over-expressing human PD-1) (Homo sapiens, UniProt Q15116)
T1 construct: expressed in transfected cells; host or cells: Jurkat
T1 sequence (Q15116 25-288): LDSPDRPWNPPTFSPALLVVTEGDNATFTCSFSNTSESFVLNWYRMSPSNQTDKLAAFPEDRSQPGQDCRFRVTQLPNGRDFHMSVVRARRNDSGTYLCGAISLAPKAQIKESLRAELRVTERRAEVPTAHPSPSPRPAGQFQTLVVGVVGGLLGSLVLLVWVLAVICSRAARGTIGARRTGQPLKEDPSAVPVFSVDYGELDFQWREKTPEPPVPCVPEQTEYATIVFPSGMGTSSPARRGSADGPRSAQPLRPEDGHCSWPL
Experiment: Jurkat-PD-1 Cell Binding High-Content Screening Assay (CBA)
Type: cell-based
Settings: Jurkat cell line over-expressing human PD-1; PE-labeled PD-L1-Ig 20 nM final; read-out: Jurkat hPD1-PDL1 IC50
How it was run: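 First, compound is added to PD-1-expressing Jurkat cells in serum-containing DMEM and left 2 h at 37° C. Next, PE-conjugated PD-L1-Ig is introduced at 20 nM final concentration for 1 hour. Finally, cells are fixed in 4% paraformaldehyde with Hoechst 33342, washed and imaged.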

**Q.** Which IC50 does the source give for `CC(C)C[C@H]1NC(=O)[C@H](CCCN)NC(=O)[C@H](Cc2ccc(O)cc2)NC(=O)[C@H](Cc2ccc(-c3ccccc3)cc2)NC(=O)[C@H](C(C)C)NC(=O)[C@H](Cc2c[nH]c3ccccc23)NC(=O)[C@H](CC(=O)O)NC(=O)[C@H](Cc2ccc(OCC(=O)O)cc2)NC(=O)[C@H](C(C)O)NC(=O)CSC[C@@H](C(=O)N[C@@H](CCN)C(=O)NCCCCCCCCCCC(=O)O)NC(=O)[C@H](CCCCN)NC(=O)[C@H](C(C)O)NC(=O)[C@H](CC2CCCCC2)NC(=O)[C@H](CCN)NC1=O` (stereo partly drawn) [Compound 3668] ({CH2CO}-[Thr(3ξ)]Y(Carboxymethyl)DWV[Bip]Y[Orn][dL][Dab][Cha][Thr(3ξ)]KC[Dab][Aun]-OH; thioether N-14) here?
**A.** The IC50 was 78.3 nM.

**Q.** For `CC(C)C[C@H]1NC(=O)[C@H](CCCN)NC(=O)[C@H](Cc2ccc(O)cc2)NC(=O)[C@H](Cc2ccc(-c3ccccc3)cc2)NC(=O)[C@H](Cc2ccc(O)cc2)NC(=O)[C@H](Cc2c[nH]c3ccccc23)NC(=O)[C@H](CC(=O)O)NC(=O)[C@H](Cc2ccc(OCC(=O)O)cc2)NC(=O)[C@H](C(C)O)NC(=O)CSC[C@@H](C(=O)N[C@@H](CCN)C(=O)NCCCCCCCCCCC(=O)O)NC(=O)[C@H](CN)NC(=O)[C@H](C(C)O)NC(=O)[C@H](CC2CCCCC2)NC(=O)[C@H](CCN)NC1=O` (stereo partly drawn) [Compound 3669] ({CH2CO}-[Thr(3ξ)]Y(Carboxymethyl)DWY[Bip]Y[Orn][dL][Dab][Cha][Thr(3ξ)][Dap]C[Dab][Aun]-OH; thioether N-14), which IC50 is on record?
**A.** Its IC50 is 152 nM.

**Q.** `CC(C)C[C@H]1NC(=O)[C@H](CCCN)NC(=O)[C@H](Cc2ccc(O)cc2)NC(=O)[C@H](Cc2ccc(-c3ccccc3)cc2)NC(=O)[C@H](Cc2ccc(O)cc2)NC(=O)[C@H](Cc2c[nH]c3ccccc23)NC(=O)[C@H](CC(=O)O)NC(=O)[C@H](Cc2ccc(OCC(=O)O)cc2)NC(=O)[C@H](C(C)O)NC(=O)CSC[C@@H](C(=O)N[C@@H](CCN)C(=O)NCCCCCCCCCCC(=O)O)NC(=O)[C@H](CCCCN)NC(=O)[C@H](C(C)O)NC(=O)[C@H](CC2CCCCC2)NC(=O)[C@H](CCN)NC1=O` (stereo partly drawn) [Compound 3670] ({CH2CO}-[Thr(3ξ)]Y(Carboxymethyl)DWY[Bip]Y[Orn][dL][Dab][Cha][Thr(3ξ)]KC[Dab][Aun]-OH; thioether N-14) was tested. Which IC50 did it give?
**A.** Its IC50 is 64.2 nM.

**Q.** For `CC(C)C[C@@H]1NC(=O)[C@H](Cc2c[nH]c3ccccc23)NC(=O)[C@H](CC(=O)O)NC(=O)[C@H](Cc2ccc(OCC(=O)O)cc2)NC(=O)[C@H](C(C)O)NC(=O)CSC[C@@H](C(=O)N[C@@H](CCN)C(=O)NCCCCCCCCCCC(=O)O)NC(=O)[C@H](CN)NC(=O)[C@H](C(C)O)NC(=O)[C@H](CC2CCCCC2)NC(=O)[C@H](CCN)NC(=O)[C@@H](CC(C)C)NC(=O)[C@H](CCCN)NC(=O)[C@H](Cc2ccc(O)cc2)NC(=O)[C@H](Cc2ccc(-c3ccccc3)cc2)NC1=O` (stereo partly drawn) [Compound 3671] ({CH2CO}-[Thr(3ξ)]Y(Carboxymethyl)DWL[Bip]Y[Orn][dL][Dab][Cha][Thr(3ξ)][Dap]C[Dab][Aun]-OH; thioether N-14), which IC50 is on record?
**A.** Its IC50 is 105 nM.

**Q.** With `Cc1cccc(C[C@@H]2NC(=O)[C@H](CC(=O)O)NC(=O)[C@H](Cc3ccc(OCC(=O)O)cc3)NC(=O)[C@H](CCN)NC(=O)CSC[C@@H](C(=O)N[C@@H](CCN)C(=O)NCCCCCCCCCCC(=O)O)NC(=O)[C@H](CO)NC(=O)[C@H](C(C)O)NC(=O)[C@H](CC3CCCCC3)NC(=O)[C@H](Cc3cnc[nH]3)NC(=O)[C@@H](CC(C)C)NC(=O)[C@H](CCCN)NC(=O)[C@H](Cc3ccc(OCC(=O)O)cc3)NC(=O)[C@H](Cc3ccc(-c4ccccc4)cc3)NC(=O)[C@H](Cc3ccc(OCC(=O)O)cc3)NC2=O)c1` (stereo partly drawn) [Compound 3672] ({CH2CO}-[Dab]Y(Carboxymethyl)D[Phe(3-Me)]Y(Carboxymethyl)[Bip]Y(Carboxymethyl)[Orn][dL]H[Cha][Thr(3ξ)]SC[Dab][Aun]-OH; thioether N-14) as the compound, how does the IC50 read?
**A.** Its IC50 is 20.7 nM.

**Q.** With `CC(C)C[C@H]1NC(=O)[C@H](CCCN)NC(=O)[C@H](C(C)C)NC(=O)[C@H](Cc2ccc(-c3ccccc3)cc2)NC(=O)[C@H](C(C)C)NC(=O)[C@H](Cc2c[nH]c3ccccc23)NC(=O)[C@H](CC(=O)O)NC(=O)[C@H](Cc2ccc(OCC(=O)O)cc2)NC(=O)[C@H](C(C)O)NC(=O)CSC[C@@H](C(=O)N[C@@H](CCN)C(=O)NCCCCCCCCCCC(=O)O)NC(=O)[C@H](CCCCN)NC(=O)[C@H](C(C)O)NC(=O)[C@H](CC2CCCCC2)NC(=O)[C@H](CCN)NC1=O` (stereo partly drawn) [Compound 3673] ({CH2CO}-[Thr(3ξ)]Y(Carboxymethyl)DWV[Bip]V[Orn][dL][Dab][Cha][Thr(3ξ)]KC[Dab][Aun]-OH; thioether N-14) as the compound, how does the IC50 read?
**A.** Its IC50 is 29.2 nM.

**Q.** For `CC(C)C[C@H]1NC(=O)[C@H](CCCN)NC(=O)[C@H](C(C)C)NC(=O)[C@H](Cc2ccc(-c3ccccc3)cc2)NC(=O)[C@H](C(C)C)NC(=O)[C@H](Cc2c[nH]c3ccccc23)NC(=O)[C@H](CC(=O)O)NC(=O)[C@H](Cc2ccc(OCC(=O)O)cc2)NC(=O)[C@H](C(C)O)NC(=O)CSC[C@@H](C(=O)N[C@@H](CCN)C(=O)NCCCCCCCCCCC(=O)O)NC(=O)[C@H](CCN)NC(=O)[C@H](C(C)O)NC(=O)[C@H](CC2CCCCC2)NC(=O)[C@H](CCN)NC1=O` (stereo partly drawn) [Compound 3674] ({CH2CO}-[Thr(3ξ)]Y(Carboxymethyl)DWV[Bip]V[Orn][dL][Dab][Cha][Thr(3ξ)][Dab]C[Dab][Aun]-OH; thioether N-14), which IC50 is on record?
**A.** The IC50 was 13.4 nM.

**Q.** `CC(C)C[C@H]1NC(=O)[C@H](CCCN)NC(=O)[C@H](C(C)C)NC(=O)[C@H](Cc2ccc(-c3ccccc3)cc2)NC(=O)[C@H](C(C)C)NC(=O)[C@H](Cc2c[nH]c3ccccc23)NC(=O)[C@H](CC(=O)O)NC(=O)[C@H](Cc2ccc(OCC(=O)O)cc2)NC(=O)[C@H](C(C)O)NC(=O)CSC[C@@H](C(=O)N[C@@H](CCN)C(=O)NCCCCCCCCCCC(=O)O)NC(=O)[C@H](CCCN)NC(=O)[C@H](C(C)O)NC(=O)[C@H](CC2CCCCC2)NC(=O)[C@H](CCN)NC1=O` (stereo partly drawn) [Compound 3675] ({CH2CO}-[Thr(3ξ)]Y(Carboxymethyl)DWV[Bip]V[Orn][dL][Dab][Cha][Thr(3ξ)][Orn]C[Dab][Aun]-OH; thioether N-14) was tested. Which IC50 did it give?
**A.** Its IC50 is 19.3 nM.

**Q.** How did the IC50 turn out when `CC(C)C[C@H]1NC(=O)[C@H](CCCN)NC(=O)[C@H](C(C)C)NC(=O)[C@H](Cc2ccc(-c3ccccc3)cc2)NC(=O)[C@H](C(C)C)NC(=O)[C@H](Cc2c[nH]c3ccccc23)NC(=O)[C@H](CC(=O)O)NC(=O)[C@H](Cc2ccc(OCC(=O)O)cc2)NC(=O)[C@H](CN)NC(=O)CSC[C@@H](C(=O)N[C@@H](CCN)C(=O)NCCCCCCCCCCC(=O)O)NC(=O)[C@H](CCN)NC(=O)[C@H](C(C)O)NC(=O)[C@H](CC2CCCCC2)NC(=O)[C@H](CCN)NC1=O` (stereo partly drawn) [Compound 3676] ({CH2CO}-[Dap]Y(Carboxymethyl)DWV[Bip]V[Orn][dL][Dab][Cha][Thr(3ξ)][Dab]C[Dab][Aun]-OH; thioether N-14) was run?
**A.** Its IC50 is 9.2 nM.

**Q.** For `CC(C)C[C@H]1NC(=O)[C@H](CCCN)NC(=O)[C@H](C(C)C)NC(=O)[C@H](Cc2ccc(-c3ccccc3)cc2)NC(=O)[C@H](C(C)C)NC(=O)[C@H](Cc2c[nH]c3ccccc23)NC(=O)[C@H](CC(=O)O)NC(=O)[C@H](Cc2ccc(OCC(=O)O)cc2)NC(=O)[C@H](CN)NC(=O)CSC[C@@H](C(=O)N[C@@H](CCN)C(=O)NCCCCCCCCCCC(=O)O)NC(=O)[C@H](CCCN)NC(=O)[C@H](C(C)O)NC(=O)[C@H](CC2CCCCC2)NC(=O)[C@H](CCN)NC1=O` (stereo partly drawn) [Compound 3677] ({CH2CO}-[Dap]Y(Carboxymethyl)DWV[Bip]V[Orn][dL][Dab][Cha][Thr(3ξ)][Orn]C[Dab][Aun]-OH; thioether N-14), which IC50 is on record?
**A.** Its IC50 is 11.3 nM.

**Q.** How did the IC50 turn out when `CC(C)C[C@H]1NC(=O)[C@H](CCCN)NC(=O)[C@H](C(C)C)NC(=O)[C@H](Cc2ccc(-c3ccccc3)cc2)NC(=O)[C@H](C(C)C)NC(=O)[C@H](Cc2c[nH]c3ccccc23)NC(=O)[C@H](CC(=O)O)NC(=O)[C@H](Cc2ccc(OCC(=O)O)cc2)NC(=O)[C@H](C(C)O)NC(=O)CSC[C@@H](C(=O)N[C@@H](CCN)C(=O)NCCOCCOCC(=O)N[C@@H](CCC(=O)NCCCCCCCCCCC(=O)O)C(=O)O)NC(=O)[C@H](CCN)NC(=O)[C@H](C(C)O)NC(=O)[C@H](CC2CCCCC2)NC(=O)[C@H](CCN)NC1=O` (stereo partly drawn) [Compound 3678] ({CH2CO}-[Thr(3ξ)]Y(Carboxymethyl)DWV[Bip]V[Orn][dL][Dab][Cha][Thr(3ξ)][Dab]C[Dab][AEEA][γGlu][Aun]-OH; thioether N-14) was run?
**A.** The IC50 was 9.2 nM.

**Q.** Which IC50 does the source give for `CC(C)C[C@H]1NC(=O)[C@H](CCCN)NC(=O)[C@H](C(C)C)NC(=O)[C@H](Cc2ccc(-c3ccccc3)cc2)NC(=O)[C@H](C(C)C)NC(=O)[C@H](Cc2c[nH]c3ccccc23)NC(=O)[C@H](CC(=O)O)NC(=O)[C@H](Cc2ccc(OCC(=O)O)cc2)NC(=O)[C@H](CN)NC(=O)CSC[C@@H](C(=O)N[C@@H](CCN)C(=O)NCCOCCOCC(=O)N[C@@H](CCC(=O)NCCCCCCCCCCC(=O)O)C(=O)O)NC(=O)[C@H](CCN)NC(=O)[C@H](C(C)O)NC(=O)[C@H](CC2CCCCC2)NC(=O)[C@H](CCN)NC1=O` (stereo partly drawn) [Compound 3679] ({CH2CO}-[Dap]Y(Carboxymethyl)DWV[Bip]V[Orn][dL][Dab][Cha][Thr(3ξ)][Dab]C[Dab][AEEA][γGlu][Aun]-OH; thioether N-14) here?
**A.** Its IC50 is 9.6 nM.

**Q.** Which IC50 does the source give for `CC(C)C[C@H]1NC(=O)[C@H](CCCN)NC(=O)[C@H](C(C)C)NC(=O)[C@H](Cc2ccc(-c3ccccc3)cc2)NC(=O)[C@H](C(C)C)NC(=O)[C@H](Cc2c[nH]c3ccccc23)NC(=O)[C@H](CC(=O)O)NC(=O)[C@H](Cc2ccc(OCC(=O)O)cc2)NC(=O)[C@H](CN)NC(=O)CSC[C@@H](C(=O)N[C@@H](CCN)C(=O)NCCOCCOCC(=O)N[C@@H](CCC(=O)NCCCCCCCCCCC(=O)O)C(=O)O)NC(=O)[C@H](CCCN)NC(=O)[C@H](C(C)O)NC(=O)[C@H](CC2CCCCC2)NC(=O)[C@H](CCN)NC1=O` (stereo partly drawn) [Compound 3680] ({CH2CO}-[Dap]Y(Carboxymethyl)DWV[Bip]V[Orn][dL][Dab][Cha][Thr(3ξ)][Orn]C[Dab][AEEA][γGlu][Aun]-OH; thioether N-14) here?
**A.** Its IC50 is 15.8 nM.
